The target in assay [1] is T1, Heat shock factor protein 1 (Mus musculus, UniProt P38532).
T1 sequence (P38532 whole entry): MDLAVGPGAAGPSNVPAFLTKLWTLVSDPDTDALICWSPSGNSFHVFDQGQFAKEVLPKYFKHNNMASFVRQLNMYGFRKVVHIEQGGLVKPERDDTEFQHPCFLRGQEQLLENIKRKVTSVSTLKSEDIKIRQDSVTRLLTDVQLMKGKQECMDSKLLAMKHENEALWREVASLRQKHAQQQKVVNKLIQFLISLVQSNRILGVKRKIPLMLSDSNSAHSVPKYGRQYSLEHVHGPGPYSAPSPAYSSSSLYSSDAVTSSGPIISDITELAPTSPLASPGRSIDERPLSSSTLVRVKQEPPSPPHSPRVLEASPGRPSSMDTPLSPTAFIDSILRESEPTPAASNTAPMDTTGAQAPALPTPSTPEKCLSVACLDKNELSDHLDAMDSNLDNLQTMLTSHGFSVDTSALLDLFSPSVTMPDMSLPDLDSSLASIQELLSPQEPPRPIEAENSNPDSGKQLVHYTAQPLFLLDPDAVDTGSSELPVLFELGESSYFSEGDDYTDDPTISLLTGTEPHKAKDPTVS
The experiment in a line: inhibition of MG132-induced HSE-luciferase signal, confirmation, cell-based, NIH3T3, luminescence, dose retest (AID 2382).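 Also: NIH3T3 fibroblasts with HSF1-driven luciferase reporter stressed by proteasome inhibitor MG132; luminescence from HSF1-driven luciferase expression after 8 hours of MG132 stress.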 It is filed as functional.

Assay [2] is described as follows: cytotoxicity toward NIH3T3 fibroblasts, dose response, counter-screen, cell-based, ATP luminescence, mouse fibroblasts (AID 2010).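 Also: cells exposed to compound for about 90 hours before reading.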 It counts as functional.
Assay [3] can be described thus: inhibitors of intracellular T. cruzi replication, confirmation, NIH3T3 host cells, beta-gal luminescence (AID 2044).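 Also: intracellular parasites grown in NIH/3T3 mouse fibroblasts as host cells; luminescent beta-galactosidase reporter signal from transgenic T. cruzi replicating inside host cells; inhibitors lower the luminescence signal.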 It counts as functional, cell-based.
In assay [4] the target is T2, Carboxy-terminal domain RNA polymerase II polypeptide A small phosphatase 1 (Homo sapiens, UniProt Q9GZU7).
T2 sequence (Q9GZU7 whole entry): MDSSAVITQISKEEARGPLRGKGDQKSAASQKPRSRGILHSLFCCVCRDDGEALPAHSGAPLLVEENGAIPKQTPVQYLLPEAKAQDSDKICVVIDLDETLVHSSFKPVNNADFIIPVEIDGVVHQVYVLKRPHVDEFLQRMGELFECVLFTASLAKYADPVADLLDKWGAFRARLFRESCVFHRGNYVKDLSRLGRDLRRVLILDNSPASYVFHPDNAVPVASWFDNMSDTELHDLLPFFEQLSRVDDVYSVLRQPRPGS
As to the kind of experiment: inhibitors of CTDSP1, concentration-response testing, biochemical assay, absorbance-based, actives from ultra-high-throughput screening (AID 540297). It is filed as functional.

Assay [5] deals with T3, Polyadenylate-binding protein 1 (Homo sapiens, UniProt P11940). The experiment in a line: PABP1 MLLE–PAM2 interaction inhibitors, dose response, miRNA deadenylation inhibitor project, biochemical, fluorescence polarization, Cy5-PAM2 peptide, secondary (AID 602260). It counts as functional. The note with it: read-out: IC50_Mean.
T3 sequence (P11940 whole entry): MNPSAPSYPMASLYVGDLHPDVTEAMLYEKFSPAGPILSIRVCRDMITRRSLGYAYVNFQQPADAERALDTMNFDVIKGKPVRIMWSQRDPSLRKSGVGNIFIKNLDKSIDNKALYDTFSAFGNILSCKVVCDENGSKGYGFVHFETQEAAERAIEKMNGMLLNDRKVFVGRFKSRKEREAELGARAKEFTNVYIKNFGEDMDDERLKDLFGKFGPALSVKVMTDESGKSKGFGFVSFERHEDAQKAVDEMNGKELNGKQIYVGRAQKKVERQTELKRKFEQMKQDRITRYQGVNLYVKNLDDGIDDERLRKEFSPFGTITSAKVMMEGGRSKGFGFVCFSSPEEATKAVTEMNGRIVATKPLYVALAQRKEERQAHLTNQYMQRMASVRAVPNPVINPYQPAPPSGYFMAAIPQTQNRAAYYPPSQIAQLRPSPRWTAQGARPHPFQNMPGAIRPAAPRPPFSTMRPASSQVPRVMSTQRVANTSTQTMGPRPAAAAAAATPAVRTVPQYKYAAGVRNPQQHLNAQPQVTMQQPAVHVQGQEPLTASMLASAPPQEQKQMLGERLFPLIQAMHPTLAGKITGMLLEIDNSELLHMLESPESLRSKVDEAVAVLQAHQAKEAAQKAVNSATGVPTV
Assay [6] deals with T3, Polyadenylate-binding protein 1. As to the kind of experiment: PABP1 MLLE–PAM2 binding inhibitor potency, dose response, biochemical, fluorescence polarization, FITC-PAM2 peptide (AID 602259). It is filed as functional. The conditions noted are these: read-out: IC50_Mean.
Assay [7] can be described thus: HEp-2 cell cytotoxicity, dose response, cytotoxicity control for RSV inhibitor project, HTS (AID 2410). It is filed as functional. The conditions noted are these: human respiratory syncytial virus.
A short description of assay [8]: C. albicans growth with fluconazole, confirmation, fluorescence, retest (AID 2467). It is filed as functional, cell-based.
Assay [9] in a line: NIH-3T3 fibroblast cytotoxicity, dose response, cytotoxicity control, cell-based, fluorescence, Alamar Blue, secondary assay (AID 2327).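 Also: NIH-3T3 mouse fibroblasts cultured with fluconazole at 8 µg/mL.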 It is filed as functional.
The nature of assay [10]: inhibitors of firefly luciferase expression or activity, dose response, H4 neuroglioma cells, luminescence (AID 1990). It counts as functional, cell-based.
The nature of assay [11]: Luminescence Cell-Based Dose Response HTS to Identify Inhibitors of 5'UTR Stem-Loop Driven Prion Protein mRNA Translation in H4 Neuroglioblastoma Cells. [Related pubchem assays: 1827 (Project Summary), 1813 (Primary HTS)]. It counts as functional.
The nature of assay [12]: inhibitors of SNCA 5'UTR-driven reporter translation, confirmation, H4 neuroglioma cells, luminescence (AID 1988). It is filed as functional, cell-based.
Assay [13] has as its target FAD-linked sulfhydryl oxidase ALR (Homo sapiens, UniProt P55789). As to the kind of experiment: inhibitors of human ALR sulfhydryl oxidase, dose response, biochemical, H2O2 detection, luminescence, cherry-pick (AID 493248).
Assay [14] relates to Streptococcus sp. 'group A'. As to the kind of experiment: growth inhibition of control SK(-) GAS strain, dose response, counter-screen for streptokinase expression inhibitor project, luminescence, kanamycin, BacTiterGlo, confirmation (AID 1900). It counts as functional, organism-based.
The subject of a further assay is Streptococcus. As to the kind of experiment: Group A Streptococcus viability loss, dose response, counter-screen for streptokinase expression inhibitor project, luminescence, BacTiterGlo (AID 1915).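 Also: potency for reduction of bacterial viability or growth.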 It counts as functional, organism-based.
Assay [15] can be described thus: Luminescence Cell-Based Dose Retest to Confirm Inhibitors of Cancer Stem Cells. [Related pubchem assays (depositor defined):AID2717, AID2721]. The note with it: Homo sapiens. It counts as functional.

Calls of active or inactive are those of the source. Rule as the data show it, for most assays here: actives have a measured EC50 and inactives only a lower limit.

Chain of FAD-linked sulfhydryl oxidase ALR (P55789 whole entry): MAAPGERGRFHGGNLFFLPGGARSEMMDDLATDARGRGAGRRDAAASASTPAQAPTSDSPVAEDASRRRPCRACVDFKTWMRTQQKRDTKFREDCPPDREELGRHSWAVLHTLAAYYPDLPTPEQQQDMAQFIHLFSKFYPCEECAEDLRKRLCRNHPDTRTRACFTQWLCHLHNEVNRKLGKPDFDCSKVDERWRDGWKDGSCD

Take `COc1cc(O)nc(SCC(=O)Nc2nc3c(s2)CCCC3)n1`: the concentration for a half-maximal effect (EC50) in assay [1] was > 195 µM (not active).

Regarding `CCCN(CCC)S(=O)(=O)c1ccc(NC(=O)c2cc(C(=O)OC)cc([N+](=O)[O-])c2)cc1`, the EC50 in assay [2] is > 60 µM (inconclusive); in [1], > 195 µM (not active); in [3], 0.323 µM (active). Regarding `CC(=O)c1ccc(NC(=O)CCS(=O)(=O)c2ccc3c(c2)n(C)c(=O)c(=O)n3C)cc1`, the IC50 in [4] was > 80 µM (inactive). Consider `Cc1c(NC(=S)NC(=O)c2cccc3ccccc23)cccc1C(=O)O`, for which the IC50 in assay [5] and in assay [6] was > 66 µM (inactive) each time. With `C=CC[N+]1(C)CC[C@]23c4c5ccc(O)c4O[C@H]2C(=O)CC[C@@]3(O)[C@H]1C5` (some centres undefined) [NALOXONE METHIODIDE], the IC50 in assay [4] was 9.73 µM (active).

On to `O=C(Nc1ccc2c(c1)CCCN2C(=O)c1cccs1)c1c(F)cccc1Cl`, for which the cytotoxic concentration (CC50) in assay [7] is 24.1 µM (active). Consider `CC1CCN(c2ccc(NC(=S)NC(=O)c3ccc(-c4cccc([N+](=O)[O-])c4)o3)cc2)CC1`, for which the IC50 in assay [5] and in assay [6] was > 66 µM (inactive) throughout. As to `CC(C)(C)c1cc(C(=O)NNc2ccc(OC(F)(F)F)cc2)n(Cc2ccccc2)n1`, the EC50 in [8] is 3.05 µM (active); in assay [9] it was > 160 µM (inactive). Take `CCOc1ccc(NC(=O)C(=O)NCCN2CCN(C(=O)c3ccc(C)cc3)CC2)cc1`: the EC50 in [10] is 14.7 µM (active); in assay [11], 64.8 µM (active); in [12], 63.7 µM (active). In the case of `CCC1=CC(c2ccccc2)n2ncnc2N1` (centres undefined), the EC50 in assay [1] was > 195 µM (not active).

With `CN(C)c1ccc(/C=N/Nc2ccc(-n3ccnc3)nn2)cc1`, the EC50 in assay [1] is recorded as > 195 µM (not active). Besides, in [13], the AC50 was 3.85 µM (active). For `O=C(Nc1nnc(SCc2c(Cl)cccc2Cl)s1)C1CC(=O)N(c2ccc3c(c2)OCCO3)C1` (centres undefined), the results for the EC50 (in assay [14]; in the assay on Streptococcus) were 44.2 µM (active) and 31.8 µM (active), respectively. The IC50 in assay [4] is 4.6 µM (active). On to `Cc1ccc(C)c2nc(O)c(CCNC(=O)C(C)(C)C)cc12`, for which the EC50 in assay [1] is > 195 µM (not active). As for `C=C(C)COc1ccc(-c2n[nH]cc2-c2ccc(OC)cc2)c(O)c1`, in assay [7], the 50% cytotoxic concentration (CC50) is 14.8 µM (active). Also, the concentration at half-maximal activity (AC50) in assay [15] was 7.79 µM (active).

Take `Cc1ccccc1C(=O)NCCNc1ccc([N+](=O)[O-])cc1`: the concentration for a half-maximal effect (EC50) in [10], in [11] and in assay [12] was > 120 µM (not active) throughout. As to `COc1cc(/C=C/C(=O)NC(C)C2CC3CCC2C3)cc(OC)c1OC` (centres undefined), the EC50 in assay [1] is recorded as > 195 µM (not active). Same read-out and setting: as for `O=[N+]([O-])c1cccc(CN2[C@@H](Cc3ccccc3)COCCS2(=O)=O)c1`, the figure is > 195 µM (not active). Regarding `CCOC(=O)C1=C(C)N(C)C(C)=C(C(=O)OCC)C1c1ccc(C(=O)OC)cc1`, the EC50 was 35.5 µM (active) in assay [10], > 120 µM (not active) in [11] and 37.9 µM (active) in assay [12].

Turning to `CCOC(=O)CSC1=C(C#N)C(c2ccccc2C)C2=C(O)CCCC2=N1` (centres undefined), in assay [1], the concentration for a half-maximal effect (EC50) was > 195 µM (not active). On to `Oc1nc(SCCOc2cccc3ccccc23)nc2ccccc12`, for which the values for the EC50 in [10], in [11] and in assay [12] were 15.4 µM (active), > 120 µM (not active) and > 120 µM (not active), respectively. In the case of `COc1ccc(Nc2ccc(N3C(=O)CC(C)C3=O)cc2[N+](=O)[O-])cn1` (centres undefined), the IC50 is > 66 µM (inactive) in assay [5] and 48.4 µM (inactive) in [6]. For the molecule `CCOC(=O)COc1ccc(S(=O)(=O)N2CCN(c3ccccc3F)CC2)cc1`, the values for the concentration giving a half-maximal response (EC50) in assay [8] and in assay [9] were > 38 µM (not active) and > 150 µM (inconclusive), respectively. Regarding `Cc1c(NC(=S)NC(=O)CSc2ccc(Cl)cc2)cccc1C(=O)O`, the IC50 in assay [5] and in [6] was > 66 µM (inactive) throughout.

In the case of `CCOC(=O)C1CCCN(c2nc3ccccc3nc2C(C#N)C(=O)OCC)C1` (centres undefined), the CC50 in assay [7] was 33.7 µM (active). As for `O=C(O)CC(SCC(=O)Nc1ccc(S(=O)(=O)N2CCCC2)cc1)C(=O)O` (centres undefined), the IC50 in assay [5] and in [6] was > 66 µM (inactive) in each case. With `COc1ccccc1NC(=O)CN1CCN(c2ccccc2OC)CC1`, the values for the EC50 in [8] and in assay [9] were > 38 µM (not active) and > 160 µM (inactive), respectively. As for `COc1cc2c(cc1OC)C(c1ccccc1O)N(C1CC(=O)N(c3ccccc3)C1=O)CC2` (centres undefined), the IC50 in assay [5] and in assay [6] was > 66 µM (inactive) in each case. `O=C(Nc1cc(S(=O)(=O)Nc2ccc(Cl)cc2)ccc1N1CCCCC1)c1ccc(F)cc1Cl`: the AC50 in assay [15] was 2.07 µM (active). In addition, the IC50 in assay [5] and in assay [6] was > 66 µM (inactive) each time.

As for `Cc1nc(NS(=O)(=O)c2ccc(Br)cc2)c2c3c(sc2n1)CCC3`, the results for the concentration for a half-maximal effect (EC50) in assay [8] and in assay [9] were 1.93 µM (active) and > 160 µM (inactive), respectively. For the molecule `N#Cc1c(NC(=O)c2nc3ncccn3n2)sc2c1CCCCC2`, the EC50 in [8] was 0.403 µM (active); in assay [9], > 150 µM (inactive). For `CS(=O)(=O)N(CC(=O)NCCSC1CCCCC1)c1ccc2c(c1)OCO2`, the EC50 in assay [1] is given as > 195 µM (not active). Take `COc1ccc(C(=O)NC2(C(F)(F)F)N=C3SCCN3C2=O)cc1` (centres undefined): the IC50 in assay [5] and in assay [6] was > 66 µM (inactive) in each case. For the molecule `Cc1c(C(=O)C(=O)N2c3ccc(F)cc3CCC2C)c2ccccc2n1C` (centres undefined), the figures for the EC50 in assay [10], in assay [11] and in assay [12] were 10.5 µM (active), 12.2 µM (active) and 5.47 µM (active), respectively.

With `O=C(O)c1cccc(-n2cccc2/C=C2\SC(=O)N(Cc3ccccc3F)C2=O)c1`, the IC50 in assay [4] was 4.62 µM (active). In the case of `CN(c1ccccc1)S(=O)(=O)c1cccc(NC(=O)CN2CCc3ccccc3C2)c1`, the CC50 in assay [7] was 22.4 µM (active). As to `COc1ccccc1N1CCN(S(=O)(=O)CCNC(=O)c2ccc(Br)o2)CC1`, the concentration giving a half-maximal response (EC50) in assay [10], in assay [11] and in [12] was > 120 µM (not active) throughout. With `C=CCSC1=C(C#N)C(c2ccccc2OCC)C(C#N)C(=O)N1` (centres undefined), the IC50 in assay [5] and in assay [6] was > 66 µM (inactive) in each case. On to `Cc1nc(Sc2ccc(Cl)cc2)c(C#N)c(C)c1[N+](=O)[O-]`, for which, in [7], the CC50 was 13.2 µM (active).

Take `Cc1cccc2cc(CN(CC3CCCO3)C(c3nnnn3Cc3ccco3)C(C)C)c(O)nc12` (centres undefined): the CC50 in assay [7] is 16.8 µM (active). In the case of `Cc1ccc(S(=O)(=O)CC(=O)Nc2nnc(C(C)(C)C)s2)cc1`, the IC50 in assay [5] and in [6] was > 66 µM (inactive) in each case. Turning to `O=C(Nc1cc(F)cc(F)c1)c1ccc(NCCCN2CCCCCC2)c([N+](=O)[O-])c1`, the values for the EC50 in assay [8] and in assay [9] were > 38 µM (not active) and 105 µM (active), respectively.

For `CCN(c1ccccc1)S(=O)(=O)c1ccc(Cl)c(NC(=O)CN2C(=O)NC3(CCCC3)C2=O)c1`, the concentration giving a half-maximal response (EC50) in assay [8] was 4.42 µM (active); in assay [9] it was > 150 µM (inconclusive). For `O=c1oc2c(-c3ccc([N+](=O)[O-])cc3)cc(O)cc2s1`, the IC50 in [4] was 6.91 µM (active).

Source of the values: ChEMBL document CHEMBL1201862, “PubChem BioAssay data set” (2004).
